In ChEMBL document CHEMBL4507268 (2021):

Columns and labels:
Details in all cases: Compound concentration 1.0 uM
[1] = molecular target: Activated CDC42 kinase 1 (Homo sapiens) (UniProt Q07912)
[2] = molecular target: Calcium/calmodulin-dependent protein kinase type II subunit delta (Homo sapiens) (UniProt Q13557)
[3] = molecular target: CDK18/Cyclin Y (Homo sapiens) (UniProt Q07002+Q8ND76)
[4] = molecular target: Cyclin-dependent kinase-like 3 (Homo sapiens) (UniProt Q8IVW4)
[5] = molecular target: Dual specificity protein kinase CLK1 (Homo sapiens) (UniProt P49759)
[6] = molecular target: Proto-oncogene tyrosine-protein kinase Src (Homo sapiens) (UniProt P12931)
[7] = molecular target: Dual specificity tyrosine-phosphorylation-regulated kinase 1A (Homo sapiens) (UniProt Q13627)
[8] = molecular target: Ephrin type-A receptor 2 (Homo sapiens) (UniProt P29317)
[9] = molecular target: Fibroblast growth factor receptor 2 (Homo sapiens) (UniProt P21802)
[10] = molecular target: Mitogen-activated protein kinase 9 (Homo sapiens) (UniProt P45984)
[11] = molecular target: MAP kinase-activated protein kinase 2 (Homo sapiens) (UniProt P49137)
[12] = molecular target: MAP/microtubule affinity-regulating kinase 3 (Homo sapiens) (UniProt P27448)
[13] = molecular target: Maternal embryonic leucine zipper kinase (Homo sapiens) (UniProt Q14680)
[14] = molecular target: Eukaryotic translation initiation factor 2-alpha kinase 3 (Homo sapiens) (UniProt Q9NZJ5)
[15] = molecular target: Protein-tyrosine kinase 2-beta (Homo sapiens) (UniProt Q14289)
[16] = molecular target: T1, Phosphatidylinositol 3-kinase C2 domain-containing subunit gamma (Homo sapiens) (UniProt O75747)
T1 sequence (whole entry): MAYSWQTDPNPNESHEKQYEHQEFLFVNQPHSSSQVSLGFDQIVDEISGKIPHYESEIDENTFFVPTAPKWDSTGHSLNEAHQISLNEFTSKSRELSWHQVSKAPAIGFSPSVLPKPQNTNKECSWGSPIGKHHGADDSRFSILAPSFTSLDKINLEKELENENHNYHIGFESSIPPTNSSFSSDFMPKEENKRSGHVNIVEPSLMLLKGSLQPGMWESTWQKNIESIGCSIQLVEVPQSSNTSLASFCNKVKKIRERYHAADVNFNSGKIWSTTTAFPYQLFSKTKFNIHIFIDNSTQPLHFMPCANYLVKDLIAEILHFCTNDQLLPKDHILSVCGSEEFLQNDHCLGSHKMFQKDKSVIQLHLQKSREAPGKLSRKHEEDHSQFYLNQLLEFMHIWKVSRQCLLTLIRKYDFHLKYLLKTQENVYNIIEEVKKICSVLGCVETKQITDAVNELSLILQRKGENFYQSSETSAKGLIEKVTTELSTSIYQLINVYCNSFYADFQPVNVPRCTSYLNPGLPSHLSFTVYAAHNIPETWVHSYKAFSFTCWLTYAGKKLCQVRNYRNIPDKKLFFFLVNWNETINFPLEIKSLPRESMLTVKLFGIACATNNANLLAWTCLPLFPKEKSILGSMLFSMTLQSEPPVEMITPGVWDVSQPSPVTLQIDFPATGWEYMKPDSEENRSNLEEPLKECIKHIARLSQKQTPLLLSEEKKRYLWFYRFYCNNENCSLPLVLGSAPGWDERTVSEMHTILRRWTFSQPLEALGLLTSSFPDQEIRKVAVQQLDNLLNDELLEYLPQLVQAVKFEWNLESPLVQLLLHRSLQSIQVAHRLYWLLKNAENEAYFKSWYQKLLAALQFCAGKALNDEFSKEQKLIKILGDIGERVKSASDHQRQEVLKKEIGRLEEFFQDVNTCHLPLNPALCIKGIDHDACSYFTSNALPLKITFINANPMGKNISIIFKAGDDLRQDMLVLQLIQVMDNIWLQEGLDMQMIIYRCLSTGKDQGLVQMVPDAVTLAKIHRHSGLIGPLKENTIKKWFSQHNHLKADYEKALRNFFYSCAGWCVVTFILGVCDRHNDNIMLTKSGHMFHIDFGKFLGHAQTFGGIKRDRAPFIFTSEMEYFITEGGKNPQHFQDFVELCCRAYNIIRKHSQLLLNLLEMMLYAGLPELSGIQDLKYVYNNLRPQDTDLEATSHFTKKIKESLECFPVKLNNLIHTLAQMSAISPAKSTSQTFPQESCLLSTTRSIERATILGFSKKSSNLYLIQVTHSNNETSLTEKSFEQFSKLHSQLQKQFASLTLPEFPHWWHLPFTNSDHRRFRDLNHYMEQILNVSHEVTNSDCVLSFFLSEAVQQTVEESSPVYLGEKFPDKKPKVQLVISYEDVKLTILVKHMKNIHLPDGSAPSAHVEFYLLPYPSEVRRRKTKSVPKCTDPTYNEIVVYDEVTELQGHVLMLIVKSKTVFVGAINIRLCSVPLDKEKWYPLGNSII

Measured: % residual kinase activity

Chain of Dual specificity protein kinase CLK1 (Homo sapiens) (P49759 whole entry, looked up): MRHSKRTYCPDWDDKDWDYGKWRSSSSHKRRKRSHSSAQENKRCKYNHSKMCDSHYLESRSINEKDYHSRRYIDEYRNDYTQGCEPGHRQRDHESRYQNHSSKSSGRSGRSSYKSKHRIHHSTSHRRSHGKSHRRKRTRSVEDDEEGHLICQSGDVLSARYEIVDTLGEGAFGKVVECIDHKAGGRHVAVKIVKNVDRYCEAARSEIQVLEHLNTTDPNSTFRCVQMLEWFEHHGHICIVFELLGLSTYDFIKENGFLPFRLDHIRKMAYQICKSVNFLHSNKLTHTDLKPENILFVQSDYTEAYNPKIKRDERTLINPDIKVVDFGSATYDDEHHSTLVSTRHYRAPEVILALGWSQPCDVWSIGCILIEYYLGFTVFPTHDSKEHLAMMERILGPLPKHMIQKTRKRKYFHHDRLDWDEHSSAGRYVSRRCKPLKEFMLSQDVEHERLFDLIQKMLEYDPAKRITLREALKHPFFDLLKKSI
Chain of Activated CDC42 kinase 1 (Homo sapiens) (Q07912 whole entry, looked up): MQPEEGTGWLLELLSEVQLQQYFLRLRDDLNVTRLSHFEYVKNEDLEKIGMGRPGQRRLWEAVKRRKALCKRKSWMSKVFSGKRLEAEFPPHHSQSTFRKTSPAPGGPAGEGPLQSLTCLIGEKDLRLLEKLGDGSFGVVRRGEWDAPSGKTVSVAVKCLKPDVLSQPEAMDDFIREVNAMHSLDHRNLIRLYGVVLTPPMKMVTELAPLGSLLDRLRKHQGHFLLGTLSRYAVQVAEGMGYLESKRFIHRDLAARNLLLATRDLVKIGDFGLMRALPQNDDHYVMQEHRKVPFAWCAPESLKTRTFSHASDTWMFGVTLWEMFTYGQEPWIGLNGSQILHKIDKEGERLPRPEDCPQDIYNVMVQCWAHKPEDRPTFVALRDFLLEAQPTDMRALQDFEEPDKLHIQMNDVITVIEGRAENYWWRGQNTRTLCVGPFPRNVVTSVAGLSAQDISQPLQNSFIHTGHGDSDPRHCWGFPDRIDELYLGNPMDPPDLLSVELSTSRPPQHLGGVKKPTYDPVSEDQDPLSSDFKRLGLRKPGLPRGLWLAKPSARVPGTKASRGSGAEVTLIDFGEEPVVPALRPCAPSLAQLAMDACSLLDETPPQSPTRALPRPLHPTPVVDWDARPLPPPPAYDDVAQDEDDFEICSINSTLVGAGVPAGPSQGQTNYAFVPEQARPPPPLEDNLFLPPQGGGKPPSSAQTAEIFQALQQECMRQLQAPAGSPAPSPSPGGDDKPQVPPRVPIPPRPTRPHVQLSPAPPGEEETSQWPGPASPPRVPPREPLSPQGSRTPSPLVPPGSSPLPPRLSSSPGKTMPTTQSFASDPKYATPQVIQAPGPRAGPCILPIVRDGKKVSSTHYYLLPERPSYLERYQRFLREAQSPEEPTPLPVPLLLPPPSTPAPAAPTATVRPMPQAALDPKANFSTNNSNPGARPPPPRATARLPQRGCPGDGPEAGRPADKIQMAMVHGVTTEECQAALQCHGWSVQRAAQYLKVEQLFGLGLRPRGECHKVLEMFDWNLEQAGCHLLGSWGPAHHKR
Chain of Eukaryotic translation initiation factor 2-alpha kinase 3 (Homo sapiens) (Q9NZJ5 whole entry): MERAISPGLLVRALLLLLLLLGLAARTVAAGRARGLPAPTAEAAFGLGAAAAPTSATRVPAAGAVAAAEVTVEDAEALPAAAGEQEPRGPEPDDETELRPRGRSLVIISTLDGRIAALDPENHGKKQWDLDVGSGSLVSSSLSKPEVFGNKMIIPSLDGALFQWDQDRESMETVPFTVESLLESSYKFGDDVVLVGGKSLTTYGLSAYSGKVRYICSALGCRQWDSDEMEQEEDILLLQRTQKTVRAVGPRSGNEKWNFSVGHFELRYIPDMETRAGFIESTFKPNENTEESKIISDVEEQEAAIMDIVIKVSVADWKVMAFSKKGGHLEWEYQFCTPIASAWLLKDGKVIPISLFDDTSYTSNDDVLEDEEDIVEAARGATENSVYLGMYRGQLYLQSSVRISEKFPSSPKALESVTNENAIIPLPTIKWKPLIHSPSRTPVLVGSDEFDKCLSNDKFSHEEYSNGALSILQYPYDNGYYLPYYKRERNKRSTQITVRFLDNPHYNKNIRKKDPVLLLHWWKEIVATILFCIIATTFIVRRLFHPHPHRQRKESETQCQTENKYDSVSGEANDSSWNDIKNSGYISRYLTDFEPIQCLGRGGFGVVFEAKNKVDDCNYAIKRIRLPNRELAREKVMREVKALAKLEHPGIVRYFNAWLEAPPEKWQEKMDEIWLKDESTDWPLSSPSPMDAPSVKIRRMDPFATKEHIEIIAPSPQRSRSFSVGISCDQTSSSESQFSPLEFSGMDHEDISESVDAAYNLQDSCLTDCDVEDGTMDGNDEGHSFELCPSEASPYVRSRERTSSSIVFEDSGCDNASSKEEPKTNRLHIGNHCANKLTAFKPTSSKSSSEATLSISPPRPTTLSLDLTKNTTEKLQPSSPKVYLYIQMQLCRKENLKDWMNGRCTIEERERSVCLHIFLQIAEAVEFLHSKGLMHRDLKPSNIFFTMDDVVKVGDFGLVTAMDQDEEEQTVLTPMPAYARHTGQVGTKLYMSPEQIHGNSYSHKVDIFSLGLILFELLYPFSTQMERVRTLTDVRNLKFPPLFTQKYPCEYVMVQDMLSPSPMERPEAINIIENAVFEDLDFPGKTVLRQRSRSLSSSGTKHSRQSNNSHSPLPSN
Chain of Proto-oncogene tyrosine-protein kinase Src (Homo sapiens) (P12931 2-536 limits assumed): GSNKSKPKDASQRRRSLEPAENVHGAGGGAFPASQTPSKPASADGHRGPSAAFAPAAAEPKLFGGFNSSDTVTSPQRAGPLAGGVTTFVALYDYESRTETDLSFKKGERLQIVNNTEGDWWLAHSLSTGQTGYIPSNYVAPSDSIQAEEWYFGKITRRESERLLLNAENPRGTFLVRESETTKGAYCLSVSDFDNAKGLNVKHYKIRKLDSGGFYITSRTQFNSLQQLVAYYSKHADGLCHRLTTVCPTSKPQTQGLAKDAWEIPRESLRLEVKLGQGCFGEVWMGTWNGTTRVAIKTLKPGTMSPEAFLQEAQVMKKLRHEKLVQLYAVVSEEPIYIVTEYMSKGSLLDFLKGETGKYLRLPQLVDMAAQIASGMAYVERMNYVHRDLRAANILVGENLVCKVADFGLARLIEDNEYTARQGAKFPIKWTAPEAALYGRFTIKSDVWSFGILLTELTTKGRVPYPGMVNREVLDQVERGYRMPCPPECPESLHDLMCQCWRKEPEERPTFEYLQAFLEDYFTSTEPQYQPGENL
Chain of Ephrin type-A receptor 2 (Homo sapiens) (P29317 whole entry): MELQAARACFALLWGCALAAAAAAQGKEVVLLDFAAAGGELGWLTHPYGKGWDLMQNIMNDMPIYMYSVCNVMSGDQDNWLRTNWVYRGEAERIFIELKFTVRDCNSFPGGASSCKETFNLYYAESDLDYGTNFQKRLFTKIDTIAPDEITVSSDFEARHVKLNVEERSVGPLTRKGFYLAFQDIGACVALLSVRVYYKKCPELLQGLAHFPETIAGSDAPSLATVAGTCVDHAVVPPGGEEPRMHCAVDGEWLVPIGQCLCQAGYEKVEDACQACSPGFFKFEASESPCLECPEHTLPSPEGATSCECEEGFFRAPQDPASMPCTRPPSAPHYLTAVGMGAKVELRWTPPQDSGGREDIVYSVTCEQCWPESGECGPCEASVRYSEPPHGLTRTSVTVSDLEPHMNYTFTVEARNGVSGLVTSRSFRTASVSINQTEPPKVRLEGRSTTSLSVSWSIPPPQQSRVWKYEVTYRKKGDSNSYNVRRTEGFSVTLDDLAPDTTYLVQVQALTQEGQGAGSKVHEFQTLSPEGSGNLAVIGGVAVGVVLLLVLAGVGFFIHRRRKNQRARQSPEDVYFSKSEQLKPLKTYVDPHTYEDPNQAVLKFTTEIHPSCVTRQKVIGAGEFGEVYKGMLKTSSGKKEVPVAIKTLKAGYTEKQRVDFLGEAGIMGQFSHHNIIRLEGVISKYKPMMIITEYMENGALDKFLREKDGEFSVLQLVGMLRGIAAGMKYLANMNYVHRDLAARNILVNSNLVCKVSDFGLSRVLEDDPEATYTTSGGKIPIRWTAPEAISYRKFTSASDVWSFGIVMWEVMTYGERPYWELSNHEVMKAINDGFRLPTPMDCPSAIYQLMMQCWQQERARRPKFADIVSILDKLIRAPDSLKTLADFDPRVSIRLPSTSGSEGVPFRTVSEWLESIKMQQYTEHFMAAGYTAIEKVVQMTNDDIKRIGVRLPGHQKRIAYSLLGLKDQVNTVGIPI
Chain of MAP kinase-activated protein kinase 2 (Homo sapiens) (P49137 whole entry, looked up): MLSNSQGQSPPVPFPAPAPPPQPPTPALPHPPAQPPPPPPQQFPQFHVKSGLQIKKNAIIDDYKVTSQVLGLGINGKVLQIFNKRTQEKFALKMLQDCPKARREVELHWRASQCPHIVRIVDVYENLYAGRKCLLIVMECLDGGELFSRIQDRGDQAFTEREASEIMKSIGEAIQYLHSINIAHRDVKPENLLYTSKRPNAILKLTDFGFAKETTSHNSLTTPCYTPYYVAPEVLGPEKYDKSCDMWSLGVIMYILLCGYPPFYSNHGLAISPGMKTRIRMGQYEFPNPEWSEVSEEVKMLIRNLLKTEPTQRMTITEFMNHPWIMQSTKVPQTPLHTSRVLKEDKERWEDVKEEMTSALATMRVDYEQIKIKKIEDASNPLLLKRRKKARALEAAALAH
Chain of Mitogen-activated protein kinase 9 (Homo sapiens) (P45984 whole entry, looked up): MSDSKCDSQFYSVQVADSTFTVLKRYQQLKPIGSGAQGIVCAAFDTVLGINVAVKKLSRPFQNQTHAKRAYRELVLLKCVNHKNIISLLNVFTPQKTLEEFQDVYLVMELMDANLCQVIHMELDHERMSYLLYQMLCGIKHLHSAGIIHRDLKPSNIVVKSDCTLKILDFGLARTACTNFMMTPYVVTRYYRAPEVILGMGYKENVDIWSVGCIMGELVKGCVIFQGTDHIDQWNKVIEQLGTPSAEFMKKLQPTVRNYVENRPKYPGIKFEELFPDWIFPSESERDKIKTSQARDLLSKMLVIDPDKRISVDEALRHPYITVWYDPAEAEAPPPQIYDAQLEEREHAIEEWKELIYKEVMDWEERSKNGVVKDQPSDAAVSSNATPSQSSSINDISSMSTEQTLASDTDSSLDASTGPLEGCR

CN1CCN(c2cnc3c(C4CCN(C(=O)c5ccc(OC(F)(F)F)cc5N)CC4)ncnc3c2)CC1 [BAY-885]
inactive: [1] 101% | [2] 95% | [3] 100% | [4] 113% | [5] 105% | [6] 113% | [7] 112% | [8] 100% | [9] 107% | [10] 104% | [11] 81% | [12] 100% | [13] 105% | [14] 100% | [15] 103% | [16] 94%
